From patent US20250360145A1, “CSF-1R INHIBITORS AND USES THEREOF” (Myrobalan Therapeutics, Inc., priority 2022, published 2025)
Read-outs that look alike come from different tables or passages of the source.

Tests used:
[1] = In vivo PK study (plasma and brain exposure); set-up: species or system CD1 mouse; details: male; for half-life: CD1, mouse
Method: The PK profiles were determined in CD1 mouse, and all the procedures and protocols were in accordance with the National Institutes of Health Guide for the Care and Use of Laboratory Animals. The CD1 mouse were purchased from JH Laboratory Animal Co. LTD. The CD1 mouse (23-30 g, 6-8 weeks, male) were randomized and divided into five groups consisting of 21 mouse per group. The test compounds that have been formulated were subjected to PK studies. The test compounds were administrated via p.o. at 45 mg/kg and i.v. at 2 mg/kg. […] The blood samples were placed on wet ice, and serum was collected after centrifugation. Serum samples were frozen and stored at −70° C. The brain samples were dried on filtrate paper, and snap frozen on dry ice and further stored at −70° C. Then, the blood samples and brain samples were further analyzed by LC-MS/MS (Triple Quad 6500+).

[2] = Plasma protein binding study; format: in vitro ADME; details: mouse plasma, equilibrium dialysis 4 hours; read-out: PPB-mouse (Bound) (%) (converted)
Method: On the day of experiment, the plasma was thawed under running cold tap water and centrifuged at 3220×g for 5 min to remove any clots. The pH value was checked and recorded. Only plasma within range of pH 7.0 to pH 8.0 was used. Pretreat the dialysis membrane according to the manufacturer's instructions: the dialysis membrane strips were soaked in ultra pure water at room temperature for approximately 1 hr. After that, each membrane strip that contains 2 membranes was separated and soaked in ethanol:water (20:80 v:v) for approximately 20 min, after which it was ready for use or was stored in the solution at 2-8° C. for up to 1 month. Prior to the experiment, the membrane was rinsed and soaked for 20 min in ultra pure water for use. Working solutions (400 μM) of test compound and control compound were prepared. Aliquots of working solutions (3 μL) were spiked into blank matrix (597 μL) to achieve final concentrations and mixed thoroughly. Aliquots of 50 μL loading matrix containing test compound or control compound in triplicate was transferred to Sample Collection Plate, respectively. The samples were matched with opposite blank buffer to obtain a final volume of 100 μL with a volume ratio of matrix:Dialysis Buffer (1:1, v:v) in each well immediately. The stop solution was added to these T0 samples of test compound and control compound. The plate was sealed and shaked at 800 rpm for 10 min. Then these T0 samples were stored at 2-8° C. pending further process along with other post-dialysis samples. The dialysis instrument was assembled following manufacture's instructions. An aliquot of 100 μL of the loading matrix containing test compound or control compound was transferred to the donor side of each dialysis well in triplicate and 100 μL of the Dialysis Buffer was loaded to the receiver side of the well. Then the plate was rotated at approximately 100 rpm in a humidified incubator with 5% CO2 at 37±1° C. for 4 hours. At the end of the dialysis, aliquots of 50 μL samples from the buffer side and matrix side of the dialysis device were taken into new 96-well plates (Sample Collection Plates). An equal volume of opposite blank matrix (buffer or matrix) in each sample was added to reach a final volume of 100 μL with volume ratio of matrix:Dialysis Buffer at 1:1 (v:v) in each well. All samples were further processed by protein precipitation for LC/MS/MS analysis.

[3] = Brain protein binding study; format: in vitro ADME; details: mouse brain homogenate, equilibrium dialysis 4 hours
Method: On the day of experiment, brain homogenate was thawed in water bath at room temperature and then incubated at 37° C. for 10 min before use. Pretreat the dialysis membrane according to the manufacturer's instructions: the dialysis membrane strips were soaked in ultra pure water at room temperature for approximately 1 hr. After that, each membrane strip that contains 2 membranes was separated and soaked in ethanol:water (20:80 v:v) for approximately 20 min, after which it was ready for use or was stored in the solution at 2-8° C. for up to 1 month. Prior to the experiment, the membrane was rinsed and soaked for 20 min in ultra pure water for use. Then working solutions (400 μM) of test compound and control compound were prepared. Aliquots of working solutions (3 μL) were spiked into blank matrix (597 μL) to achieve final concentrations and mixed thoroughly. Aliquots of 50 μL loading matrix containing test compound or control compound in triplicate was transferred to Sample Collection Plate, respectively. The samples were matched with opposite blank buffer to obtain a final volume of 100 μL with a volume ratio of matrix:Dialysis Buffer (1:1, v:v) in each well immediately. The stop solution was added to these T0 samples of test compound and control compound. The plate was sealed and shaked at 800 rpm for 10 min. Then these T0 samples were stored at 2-8° C. pending further process along with other post-dialysis samples. The dialysis instrument was assembled following manufacture's instructions. An aliquot of 100 μL of the loading matrix containing test compound or control compound was transferred to the donor side of each dialysis well in triplicate and 100 μL of the Dialysis Buffer was loaded to the receiver side of the well. Then the plate was rotated at approximately 100 rpm in a humidified incubator with 5% CO2 at 37±1° C. for 4 hours. At the end of the dialysis, aliquots of 50 μL samples from the buffer side and matrix side of the dialysis device were taken into new 96-well plates (Sample Collection Plates). An equal volume of opposite blank matrix (buffer or matrix) in each sample was added to reach a final volume of 100 μL with volume ratio of matrix:Dialysis Buffer at 1:1 (v:v) in each well. All samples were further processed by protein precipitation for LC/MS/MS analysis.

CSF-1R = CSF-1R (Homo sapiens (Human), UniProt P07333); assay: Biochemical HTRF kinase assay, CSF-1R; details: recombinant human CSF-1R;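 further: enzyme incubated with inhibitor plus a substrate and ATP mix for one hour at room temperature before HTRF detection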
Sequence of CSF-1R (P07333 20-972): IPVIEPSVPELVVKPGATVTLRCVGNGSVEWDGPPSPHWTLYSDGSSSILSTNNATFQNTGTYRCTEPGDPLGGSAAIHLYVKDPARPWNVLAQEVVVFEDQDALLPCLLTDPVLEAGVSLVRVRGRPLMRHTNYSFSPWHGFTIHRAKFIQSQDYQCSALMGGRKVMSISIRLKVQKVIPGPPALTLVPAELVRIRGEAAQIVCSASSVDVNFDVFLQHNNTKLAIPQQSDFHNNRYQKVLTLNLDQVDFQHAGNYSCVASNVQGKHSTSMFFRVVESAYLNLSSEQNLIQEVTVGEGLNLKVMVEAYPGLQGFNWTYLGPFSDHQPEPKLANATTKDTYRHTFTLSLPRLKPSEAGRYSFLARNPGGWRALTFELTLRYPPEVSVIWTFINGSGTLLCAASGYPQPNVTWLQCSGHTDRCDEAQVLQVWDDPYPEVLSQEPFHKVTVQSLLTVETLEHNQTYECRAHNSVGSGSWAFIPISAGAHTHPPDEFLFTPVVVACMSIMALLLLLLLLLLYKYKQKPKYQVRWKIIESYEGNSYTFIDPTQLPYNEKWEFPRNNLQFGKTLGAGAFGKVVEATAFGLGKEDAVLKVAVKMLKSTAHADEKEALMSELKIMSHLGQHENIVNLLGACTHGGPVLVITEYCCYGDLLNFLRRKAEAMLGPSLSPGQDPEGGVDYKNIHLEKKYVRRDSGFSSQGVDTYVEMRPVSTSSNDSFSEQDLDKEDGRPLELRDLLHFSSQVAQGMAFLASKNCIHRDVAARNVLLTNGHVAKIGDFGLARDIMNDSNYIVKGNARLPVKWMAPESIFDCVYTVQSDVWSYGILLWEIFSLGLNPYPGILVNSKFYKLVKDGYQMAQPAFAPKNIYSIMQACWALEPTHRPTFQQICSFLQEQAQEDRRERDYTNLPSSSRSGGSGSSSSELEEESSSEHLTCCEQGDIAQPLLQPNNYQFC

c-Kit = c-Kit (Homo sapiens (Human), UniProt P10721); assay: Biochemical HTRF kinase assay, c-Kit; details: for IC50: recombinant human protein, read-out: cKit IC50; for cKit Fold: selectivity: IC50 of cKit as multiple of IC50 of CSF-1R;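 on all read-outs here: enzyme reaction with substrate and ATP run in 384-well plates for 1 hour at room temperature, kinase activity detected by HTRF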
Sequence of c-Kit (P10721 26-976): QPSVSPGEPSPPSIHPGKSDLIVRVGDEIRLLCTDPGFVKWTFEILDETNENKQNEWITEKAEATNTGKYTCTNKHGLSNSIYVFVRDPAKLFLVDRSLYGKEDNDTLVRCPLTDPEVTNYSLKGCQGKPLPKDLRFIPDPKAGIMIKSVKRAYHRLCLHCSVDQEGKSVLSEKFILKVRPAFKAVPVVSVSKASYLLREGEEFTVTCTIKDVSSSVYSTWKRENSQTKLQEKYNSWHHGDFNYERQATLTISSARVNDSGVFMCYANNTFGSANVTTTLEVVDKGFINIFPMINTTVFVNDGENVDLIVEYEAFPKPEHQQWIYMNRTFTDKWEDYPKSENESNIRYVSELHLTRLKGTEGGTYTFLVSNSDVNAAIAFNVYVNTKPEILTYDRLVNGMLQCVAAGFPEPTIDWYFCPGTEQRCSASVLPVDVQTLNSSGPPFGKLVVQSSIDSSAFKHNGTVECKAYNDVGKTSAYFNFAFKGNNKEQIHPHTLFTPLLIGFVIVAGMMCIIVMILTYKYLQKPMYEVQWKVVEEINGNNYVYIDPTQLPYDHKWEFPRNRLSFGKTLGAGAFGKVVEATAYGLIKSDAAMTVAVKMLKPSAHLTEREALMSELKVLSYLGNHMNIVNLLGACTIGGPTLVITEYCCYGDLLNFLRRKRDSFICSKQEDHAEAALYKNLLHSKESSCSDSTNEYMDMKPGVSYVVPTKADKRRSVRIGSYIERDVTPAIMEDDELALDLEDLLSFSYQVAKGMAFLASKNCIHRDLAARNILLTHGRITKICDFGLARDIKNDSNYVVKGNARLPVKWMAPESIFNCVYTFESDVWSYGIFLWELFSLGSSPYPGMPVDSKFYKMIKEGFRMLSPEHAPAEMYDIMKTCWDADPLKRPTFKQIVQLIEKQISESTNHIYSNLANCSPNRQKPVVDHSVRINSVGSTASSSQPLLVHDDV

FLT3 = FLT3 (Homo sapiens (Human), UniProt P36888); assay: Biochemical HTRF kinase assay, FLT3; details: for IC50: recombinant human protein; for FLT3 Fold: selectivity: IC50 of FLT3 as multiple of IC50 of CSF-1R
Sequence of FLT3 (P36888 27-993): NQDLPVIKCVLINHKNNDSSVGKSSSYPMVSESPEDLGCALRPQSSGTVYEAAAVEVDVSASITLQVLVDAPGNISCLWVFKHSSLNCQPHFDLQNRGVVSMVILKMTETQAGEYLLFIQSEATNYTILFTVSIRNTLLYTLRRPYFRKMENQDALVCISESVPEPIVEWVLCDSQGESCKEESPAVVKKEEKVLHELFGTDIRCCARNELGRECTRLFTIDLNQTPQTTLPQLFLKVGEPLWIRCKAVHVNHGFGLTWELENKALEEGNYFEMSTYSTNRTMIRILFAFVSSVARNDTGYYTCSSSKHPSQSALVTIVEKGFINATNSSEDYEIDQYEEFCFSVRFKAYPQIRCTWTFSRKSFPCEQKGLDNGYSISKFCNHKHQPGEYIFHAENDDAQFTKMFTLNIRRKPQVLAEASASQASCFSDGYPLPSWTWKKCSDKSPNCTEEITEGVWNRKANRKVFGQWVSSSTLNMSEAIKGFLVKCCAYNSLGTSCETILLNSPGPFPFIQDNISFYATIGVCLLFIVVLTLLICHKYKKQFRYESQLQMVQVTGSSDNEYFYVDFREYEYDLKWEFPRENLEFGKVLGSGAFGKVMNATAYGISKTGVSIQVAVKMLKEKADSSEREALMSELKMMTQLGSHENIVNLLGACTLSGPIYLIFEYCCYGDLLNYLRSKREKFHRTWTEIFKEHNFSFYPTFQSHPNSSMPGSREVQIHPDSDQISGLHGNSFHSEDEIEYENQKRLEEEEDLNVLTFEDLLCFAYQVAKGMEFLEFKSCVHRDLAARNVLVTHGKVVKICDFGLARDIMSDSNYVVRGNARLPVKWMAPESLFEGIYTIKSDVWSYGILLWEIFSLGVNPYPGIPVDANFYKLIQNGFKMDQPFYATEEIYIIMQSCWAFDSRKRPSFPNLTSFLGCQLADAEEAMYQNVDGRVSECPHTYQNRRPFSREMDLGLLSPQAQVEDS

PDGFRβ = PDGFRβ (Homo sapiens (Human), UniProt P09619); assay: Biochemical HTRF kinase assay, PDGFRβ; details: for IC50: recombinant human protein, read-out: PDGFR-1β IC50; for PDGFR-1β Fold: selectivity: IC50 of PDGFR-1β as multiple of IC50 of CSF-1R;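 on all read-outs here: kinase reaction with substrate/ATP mix run 1 h at room temperature in 384-well format, HTRF signal detection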
Sequence of PDGFRβ (P09619 33-1106): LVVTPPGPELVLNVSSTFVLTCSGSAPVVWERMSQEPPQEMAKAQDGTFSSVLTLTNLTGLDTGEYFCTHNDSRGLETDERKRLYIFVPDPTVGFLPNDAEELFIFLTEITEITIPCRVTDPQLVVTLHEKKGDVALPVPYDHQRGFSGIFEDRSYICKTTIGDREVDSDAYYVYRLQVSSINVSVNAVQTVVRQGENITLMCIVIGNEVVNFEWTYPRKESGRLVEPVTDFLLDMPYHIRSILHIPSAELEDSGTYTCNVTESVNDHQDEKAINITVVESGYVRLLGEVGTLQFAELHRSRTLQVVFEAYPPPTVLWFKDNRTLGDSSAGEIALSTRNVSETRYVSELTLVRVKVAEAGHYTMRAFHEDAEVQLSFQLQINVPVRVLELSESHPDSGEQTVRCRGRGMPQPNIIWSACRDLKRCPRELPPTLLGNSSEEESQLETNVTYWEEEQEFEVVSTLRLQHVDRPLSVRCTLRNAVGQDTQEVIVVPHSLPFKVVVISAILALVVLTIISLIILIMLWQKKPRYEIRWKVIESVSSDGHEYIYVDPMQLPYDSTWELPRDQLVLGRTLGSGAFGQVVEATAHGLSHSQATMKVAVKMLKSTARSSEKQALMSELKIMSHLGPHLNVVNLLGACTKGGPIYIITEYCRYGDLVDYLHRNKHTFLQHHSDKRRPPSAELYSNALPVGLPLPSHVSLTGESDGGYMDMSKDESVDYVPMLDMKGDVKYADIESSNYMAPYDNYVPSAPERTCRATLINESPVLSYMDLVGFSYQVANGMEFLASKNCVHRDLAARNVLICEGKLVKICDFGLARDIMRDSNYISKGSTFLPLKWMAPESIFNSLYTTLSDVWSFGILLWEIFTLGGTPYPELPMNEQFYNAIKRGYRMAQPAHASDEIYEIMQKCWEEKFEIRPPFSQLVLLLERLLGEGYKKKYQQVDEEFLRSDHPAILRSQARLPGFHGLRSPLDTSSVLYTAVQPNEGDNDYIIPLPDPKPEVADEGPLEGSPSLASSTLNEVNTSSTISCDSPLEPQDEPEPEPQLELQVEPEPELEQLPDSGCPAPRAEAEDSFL

[4] = tested on: Ba/F3_CSF-1R (stably expressing human CSF-1R kinase); assay: Cell proliferation assay, Ba/F3_CSF-1R; format: cell-based; details: BaF3, 72 h, Ba/F3_CSF-1R cells, 72 hours treatment; read-out: CSF-1R BaF3 EC50
EOC2 cell = assay: Cell proliferation assay, EOC2; format: cell-based, mouse; details: EOC2 cells, 72 hours treatment, read-out: ECO2 EC50

| Structure (SMILES) | IC50 (CSF-1R; Table 2) [nM] | IC50 (CSF-1R; Table 3) [nM] | IC50 (c-Kit) [nM] | cKit Fold (c-Kit) [fold] | IC50 (FLT3) [nM] | FLT3 Fold (FLT3) [fold] | IC50 (PDGFRβ) [nM] | PDGFR-1β Fold (PDGFRβ) [fold] | EC50 [4] [nM] | EC50 (EOC2 cell; Mus musculus, 72 h) [nM] | further results |
| --- | --- | --- | --- | --- | --- | --- | --- | --- | --- | --- | --- |
| COc1ncc(F)cc1CNc1ccc(Cc2c[nH]c3ncc(C)cc23)c(F)n1 [PLX5622, reference compound] | – | – | – | – | – | – | – | – | – | – | Kp uu ([1]; CD1, brain, po, mouse, p.o. 45 mg/kg, BBB penetration): 0.003; half-life ([1]; serum, iv, 2 mg/kg, CD1 mouse, i.v. 2 mg/kg, read-out: IV-2mpk T1/2 (converted)): 3.69 h; half-life ([1]; serum, po, 45 mg/kg, CD1 mouse, p.o. 45 mg/kg, read-out: PO-45mpk T1/2 (converted)): 2.43 h; AUC(0-t) ([1]; CD1, po, mouse, p.o. 45 mg/kg, brain, read-out: PO-45mpk AUClast-brain): 37.6 µg·h/mL; AUC(0-t) ([1]; CD1, po, mouse, p.o. 45 mg/kg, plasma, Tables 7 and 8, read-out: PO-45mpk AUClast-plasma): 163 µg·h/mL; AUC(0-inf) ([1]; serum, iv, CD1 mouse, i.v. 2 mg/kg, read-out: IV-2mpk AUCInf): 6.13 µg·h/mL; AUC(0-t) ([1]; serum, iv, CD1 mouse, i.v. 2 mg/kg, read-out: IV-2mpk AUClast): 6.1 µg·h/mL; clearance ([1]; serum, iv, CD1 mouse, i.v. 2 mg/kg, read-out: IV-2mpk CL (converted)): 5.43 mL/min/kg; Vd ([1]; serum, iv, CD1 mouse, i.v. 2 mg/kg, read-out: IV-2mpk VSS): 0.98 L/kg; bioavailability ([1]; serum, oral, CD1 mouse, p.o. 45 mg/kg vs i.v. 2 mg/kg): 118%; AUC(0-t) ([1]; serum, po, CD1 mouse, p.o. 45 mg/kg, Tables 5 and 6, read-out: PO-45mpk AUClast): 163 µg·h/mL; AUC(0-inf) ([1]; serum, po, CD1 mouse, p.o. 45 mg/kg, read-out: PO-45mpk AUCInf): 163 µg·h/mL; Cmax ([1]; serum, po, CD1 mouse, p.o. 45 mg/kg, read-out: PO-45mpk Cmax): 24900 ng/mL; Tmax ([1]; serum, po, CD1 mouse, p.o. 45 mg/kg, read-out: PO-45mpk Tmax): 1 h; fraction unbound at 4 h, 2 µM [2]: 0.023; BPB-mouse (Bound) (%) [3]: 99.97% |
| COc1cnc2c(Cc3cnc(OCc4ccc(OC(F)F)cn4)c(OC)c3)ccnc2c1 [Example 56] | 2.2 | 2.2 | > 1000 | >100 | > 1000 | >100 | 312 | >100 | 131 | 31.2 | – |
| COc1cnc2c(Cc3cnc(OCc4cc(C)n(C5COC5)n4)c(OC)c3)ccnc2c1 [Example 88] | 4.9 | 4.9 | > 1000 | >100 | > 1000 | >100 | > 1000 | >100 | 76.7 | 116 | – |
| COc1ccc(COc2ncc(Cc3ccnc4cc(N(C)C)cnc34)cc2OC)nc1 [Example 100, 8-((5-methoxy-6-((5-methoxypyridin-2-yl)methoxy)pyridin-3-yl)methyl)-N,N-dimethyl-1,5-naphthyridin-3-amine] | 2.2 | 2.2 | 875 | >100 | > 1000 | >100 | 378 | >100 | 17.1 | 10 | – |
| COc1cnc2c(Cc3cnc(OCc4cc5n(n4)C[C@@H](OC)C5)c(OC)c3)ccnc2c1 [Example 121] | 19.9 | 19.9 | > 1000 | >50 | > 1000 | >50 | > 1000 | >50 | 41.1 | 15.2 | – |
| COc1cnc2c(Cc3cnc(OCc4ccc([C@H]5CC5(F)F)cn4)c(OC)c3)ccnc2c1 (stereo in doubt) [Example 80] | 4 | 4 | 214 | 53.4 | > 1000 | >100 | 49 | 12.3 | 50.7 | – | EC50 (EOC2 cell): 29.8 nM |
| COc1cnc2c(Cc3cnc(OCc4ccc(C5CC5(F)F)cn4)c(OC)c3)ccnc2c1 (stereo not shown) [Example 66] | 3 | 3 | 948 | >100 | > 1000 | >100 | 73.6 | 24.5 | 89.1 | 62.7 | – |
| COc1cnc2c(Cc3cnc(OCc4ccc(C5CC5)cn4)c(OC)c3)ccnc2c1 [Example 59] | 4.4 | 4.4 | > 1000 | >100 | > 1000 | >100 | 349 | 79 | 41.5 | 42.3 | – |
| COc1ccc(COc2ncc(Cc3ccnc4cccnc34)cc2OC)nc1 [Example 15, 4-((5-methoxy-6-((5-methoxypyridin-2-yl)methoxy)pyridin-3-yl)methyl)-1,5-naphthyridine] | 9.8 | 9.8 | > 1000 | >100 | > 1000 | >100 | > 1000 | >100 | 437 | 253 | – |
| COc1cnc2c(Cc3cnc(OCc4cc(C(C)C)n(C)n4)c(OC)c3)ccnc2c1 [Example 93] | 2.1 | 2.1 | > 1000 | >100 | > 1000 | >100 | > 1000 | >100 | 72.9 | 18.3 | – |
